Like-named read-outs stand apart in the source and are kept apart here.
Test system: lower esophageal sphincter (LES)
Experiment: Determination of LES pressure in the anesthetized dog
Type: in vivo, dogs
Settings: Canis lupus familiaris, mean ED20 = dose which increases LES pressure 20 mm Hg (N>=3)
Procedure: Methods for Determination of LES Pressure in the Anesthetized Dog
Mongrel or beagle dogs, male and female, are anesthetized using sodium pentobarbital (35.0 mg/kg., i.v.). Sodium pentobarbital is then continuously infused (approximately 6.0 mg/kg/hr) to maintain deep anesthesia. Blood pressure is monitored via a catheter surgically implanted into the femoral artery and attached to a Gould-Statham P23ID transducer. A catheter is also implanted into the femoral vein to administer test drugs. Respiration is maintained by an endotracheal tube attached to a respirator. A continuously perfused manometric catheter system including a Dent sleeve to measure sphincter pressure (Dent, Gastroenterology 71:263-267, 1976) is inserted into the esophagus and positioned so that intraluminal pressure is recorded from the body of the esophagus, the lower esophageal sphincter (LES) and the fundus of the stomach. The Dent sleeve catheter is perfused at a rate of 0.5 ml of water per minute for each lumen of the catheter by using an Arndorfer Hydraulic Capillary Infusion System. A cannula is implanted into the gastric antrum to allow drainage of the perfusate solution and prevent intestinal distension. Continuous tracings of esophageal, LES and fundus pressure are monitored on a Grass Polygraph (Model 7D). Correct positioning of the Dent sleeve is verified by noting a high pressure zone at the LES and by administration of an intravenous dose of 5-HT (usually 10-15 mcg/kg) which contracts the LES while having little or no recordable effect on either the body of the esophagus or the fundus. After verification of placement of the sleeve, the animal is allowed to stabilize for approximately 30 minutes.
Compounds are administered intravenously or intraduodenally. In most cases, succeeding doses of the same or different compounds are given only after the LES pressure has returned to approximate pre-dosing baseline values. In all cases, the magnitude of change in LES pressure is determined from the baseline pressure immediately prior to each treatment to the maximum pressure during treatment. Since the compounds used usually produce an immediate effect on LES pressure, no pretreatment time prior to measurement is necessary during this testing.
Direct assay techniques are used to estimate an Effective Dose 20 (ED₂₀) for the test compound in individual animals. The mean ED₂₀ and 95% confidence limits are determined using the individual ED₂₀ values from a group of animals (N= ≧3) that received the same treatment. The ED₂₀ is the dose which increases LES pressure 20 mm Hg.

[1] = intravenous, read-out: ED20 in mcg/kg i.v.
[2] = intraduodenal, read-out: ED20 in mcg/kg i.d.

| SMILES | ED (20 mm Hg) [1] [µg/kg] | ED (20 mm Hg) [2] [µg/kg] |
| --- | --- | --- |
| Oc1ccc2c(c1)CCNCC2 [Compound 4, 7-hydroxy-2,3,4,5-tetrahydro-1H-3-benzazepine] | 348 | – |
| CN1CCc2cc(O)c(Sc3ccccc3)cc2CC1 [Compound 2, 8-hydroxy-3-methyl-7-phenylthio-2,3 4,5-tetrahydro-1H-3-benzazepine] | 14 | ~1000 |
| CN1CCc2ccc(O)c(Sc3ccccc3)c2CC1 [Compound 1, 7-hydroxy-3-methyl-6-phenylthio-2,3 4,5-tetrahydro-1H-3-benzazepine] | 63 | 263 |
| CSc1ccc2c(c1)CCN(C)CC2 [Compound 3, 3-methyl-7-methylthio-2,3,4,5-tetra-hydro-1H-3-benzazepine] | 273 | 236 |
| CN1CCc2cc(Sc3ccccc3)c([N+](=O)[O-])cc2CC1 [Compound 5, 3-methyl-7-nitro-8-phenylthio-2,3,4,5-tetrahydro-1H-3-benzazepine] | 1200 | – |

From patent EP0285287A2, “3-Benzazepine compounds for use in treating gastrointestinal motility disorders” (SMITHKLINE BECKMAN CORPORATION, priority 1987, dated 1988)
